Test results published in the supplement of paper PMC13380429.

How the values were obtained:
Conditions in all cases: 72 h
U2OS [1] = assay: cell viability relative to DMSO; higher = less toxic
Vero E6 [2] = assay: as above
HepG2 [3] = assay: as above
Caco-2 [4] = assay: as above
Calu-3 [5] = assay: as above
U2OS [6] = assay: relative viability EC50 (midpoint between 100% and the lowest measured viability); higher = less toxic
Vero E6 [7] = assay: as above
HepG2 [8] = assay: as above
Caco-2 [9] = assay: as above
Calu-3 [10] = assay: as above
U2OS [11] = assay: drug sensitivity score (DSS) for viability; higher = more toxic; extreme values may be limits of the assay
Vero E6 [12] = assay: as above
HepG2 [13] = assay: as above
Caco-2 [14] = assay: as above
Calu-3 [15] = assay: as above

| SMILES | cell viability (U2OS [1]; 1 nM) [%] | cell viability (U2OS [1]; 10 nM) [%] | cell viability (U2OS [1]; 100 nM) [%] | cell viability (U2OS [1]; 1000 nM) [%] | cell viability (U2OS [1]; 10000 nM) [%] | cell viability (Vero E6 [2]; 1 nM) [%] | cell viability (Vero E6 [2]; 10 nM) [%] | cell viability (Vero E6 [2]; 100 nM) [%] | cell viability (Vero E6 [2]; 1000 nM) [%] | cell viability (Vero E6 [2]; 10000 nM) [%] | cell viability (HepG2 [3]; 1 nM) [%] | cell viability (HepG2 [3]; 10 nM) [%] | cell viability (HepG2 [3]; 100 nM) [%] | cell viability (HepG2 [3]; 1000 nM) [%] | cell viability (HepG2 [3]; 10000 nM) [%] | cell viability (Caco-2 [4]; 1 nM) [%] | cell viability (Caco-2 [4]; 10 nM) [%] | cell viability (Caco-2 [4]; 100 nM) [%] | cell viability (Caco-2 [4]; 1000 nM) [%] | cell viability (Caco-2 [4]; 10000 nM) [%] | cell viability (Calu-3 [5]; 1 nM) [%] | cell viability (Calu-3 [5]; 10 nM) [%] | cell viability (Calu-3 [5]; 100 nM) [%] | cell viability (Calu-3 [5]; 1000 nM) [%] | cell viability (Calu-3 [5]; 10000 nM) [%] | relative viability EC50 (U2OS [6]) [µM] | relative viability EC50 (Vero E6 [7]) [µM] | relative viability EC50 (HepG2 [8]) [nM] | relative viability EC50 (Caco-2 [9]) [µM] | relative viability EC50 (Calu-3 [10]) [µM] | drug sensitivity score (U2OS [11]) | drug sensitivity score (Vero E6 [12]) | drug sensitivity score (HepG2 [13]) | drug sensitivity score (Caco-2 [14]) | drug sensitivity score (Calu-3 [15]) |
| --- | --- | --- | --- | --- | --- | --- | --- | --- | --- | --- | --- | --- | --- | --- | --- | --- | --- | --- | --- | --- | --- | --- | --- | --- | --- | --- | --- | --- | --- | --- | --- | --- | --- | --- | --- |
| O=C(NCCCCN1CCN(c2cccc(Cl)c2Cl)CC1)c1ccc2c(c1)Cc1ccccc1-2 [NGB-2904] | 93.5 | 102 | 95.6 | 102 | 100 | 96.7 | 91.2 | 93.6 | 89.5 | 98.3 | 107 | 94.1 | 99.3 | 91.2 | 92.9 | 89.4 | 97.2 | 97 | 109 | 103 | 94.3 | 97.9 | 86.5 | 108 | 99.9 | > 10 | > 10 | > 10000 | > 10 | > 10 | 0 | 0 | 0 | 0 | 0 |
| CC(C)(C)/[N+]([O-])=C/c1ccc(S(=O)(=O)O)cc1S(=O)(=O)O [NXY-059] | 94.6 | 100 | 93.4 | 98.7 | 106 | 99.1 | 105 | 106 | 105 | 101 | 101 | 94.4 | 102 | 100 | 96.8 | 98.5 | 101 | 96.5 | 105 | 97.5 | 91.3 | 97 | 98.4 | 95 | 95.8 | > 10 | > 10 | > 10000 | > 10 | > 10 | 0 | 0 | 0 | 0 | 0 |
| Cc1ccccc1CN1C(=O)C2=C(CCN(Cc3ccccc3)C2)N2CCN=C12 [ONC201] | 100 | 102 | 95.4 | 106 | 41.1 | 110 | 101 | 103 | 102 | 32.2 | 108 | 93.7 | 104 | 91.6 | 10.3 | 108 | 106 | 93.4 | 107 | 44.1 | 103 | 103 | 102 | 106 | 75.7 | 3.64 | 3.35 | 2390 | 3.72 | > 10 | 2.8 | 3.5 | 6.3 | 2.5 | 0.6 |
| CN1CC[C@@H](c2c(O)cc(O)c3c(=O)cc(-c4ccccc4Cl)oc23)[C@@H]1CO [P276-00] | 97.6 | 100 | 90.3 | 49.3 | 3 | 103 | 95.8 | 102 | 63.9 | 6.1 | 114 | 94.7 | 101 | 6.6 | 7.6 | 101 | 108 | 95.1 | 57.6 | 21.8 | 108 | 103 | 94.5 | 59 | 38.2 | 0.878 | 1.21 | 324 | 0.881 | 0.604 | 11.5 | 10.1 | 16.7 | 9.4 | 8.5 |
| O=C(/C=C/c1ccc2ccc(C(F)(F)F)cc2n1)c1ccncc1 [PFK-158] | 94.4 | 100 | 93.9 | 101 | 0 | 105 | 86.7 | 110 | 92.1 | 87.3 | 97.1 | 84.6 | 96.3 | 102 | 44.9 | 95.9 | 92.8 | 102 | 92.3 | 88.2 | 92.1 | 96.3 | 90.5 | 104 | 89.9 | 3.22 | > 10 | 3370 | > 10 | > 10 | 5.5 | 0.5 | 2.8 | 0 | 0 |
| Nc1cc(C(F)(F)F)c(-c2nc(N3CCOCC3)nc(N3CCOCC3)n2)cn1 [PI3K-IN-2] | 103 | 106 | 99 | 89.7 | 24.5 | 106 | 106 | 105 | 70 | 30 | 124 | 106 | 101 | 59.4 | 25.1 | 107 | 106 | 97.7 | 63.3 | 17.1 | 88.3 | 102 | 78.1 | 48 | 21.4 | 2.07 | 1.12 | 935 | 1.12 | 0.376 | 5.9 | 7.8 | 9.1 | 9.1 | 12.4 |
| C[C@@]1(F)[C@H](O)[C@@H](CO)O[C@H]1n1ccc(N)nc1=O [PSI-6130] | 95.5 | 101 | 96.9 | 100 | 107 | 101 | 93.3 | 100 | 92.5 | 106 | 103 | 91.8 | 106 | 100 | 107 | 94.8 | 96.8 | 94.7 | 103 | 108 | 99.3 | 99.6 | 96 | 100 | 96.7 | > 10 | > 10 | > 10000 | > 10 | > 10 | 0 | 0 | 0 | 0 | 0 |
| C[C@@H](CN1CCC(Cc2ccccc2)CC1)[C@@H](O)c1ccc(O)cc1 [Ro-25-6981] | 99.1 | 102 | 96.5 | 96.8 | 100 | 103 | 102 | 103 | 107 | 99.8 | 93.9 | 100 | 102 | 101 | 102 | 97.1 | 92.3 | 86.9 | 94.4 | 94.3 | 97.4 | 98.2 | 89.1 | 95.8 | 107 | > 10 | > 10 | > 10000 | > 10 | > 10 | 0 | 0 | 0 | 0 | 0 |
| CC(C)SC(=N)N [S-isopropylisothiourea] | 96.9 | 98.2 | 96.3 | 103 | 102 | 103 | 99.2 | 99.5 | 89.9 | 97.2 | 101 | 109 | 103 | 94.5 | 108 | 99 | 95 | 96.7 | 105 | 91.9 | 100 | 99.5 | 102 | 97.1 | 84.8 | > 10 | > 10 | > 10000 | > 10 | > 10 | 0 | 0 | 0 | 0 | 0.5 |
| O=C(NNc1nc2cc(F)ccc2n2cccc12)c1cnccn1 [SC-144] | 104 | 99.3 | 91.8 | 40.1 | 15.9 | 97.1 | 100 | 82.7 | 43.6 | 21.9 | 96 | 98.3 | 101 | 15.2 | 20.2 | 93.3 | 101 | 80.4 | 6.6 | 13.8 | 102 | 95.9 | 93.3 | 6 | 3.9 | 0.513 | 0.368 | 323 | 0.17 | 0.27 | 12.5 | 12.6 | 15.3 | 20 | 18.1 |
| N[C@@H](Cc1cc(-c2ccc(Cl)cc2Cl)cc(CP(=O)(O)O)c1O)C(=O)O [SDZ-220-040] | 105 | 98.6 | 103 | 98.2 | 100 | 98.7 | 102 | 106 | 104 | 100 | 97.4 | 108 | 99.2 | 104 | 89.1 | 103 | 99.5 | 94.3 | 94.3 | 102 | 105 | 104 | 98.2 | 108 | 110 | > 10 | > 10 | > 10000 | > 10 | > 10 | 0 | 0 | 0 | 0 | 0 |
| Cc1cccc(/C=C/c2ccccc2)n1 [SIB-1893] | 99.8 | 106 | 96.3 | 103 | 97.4 | 94 | 104 | 102 | 103 | 100 | 108 | 96.1 | 107 | 102 | 94.2 | 88.7 | 101 | 90.7 | 100 | 96.9 | 100 | 102 | 99.2 | 98.1 | 102 | > 10 | > 10 | > 10000 | > 10 | > 10 | 0 | 0 | 0 | 0 | 0 |
| N[C@@H](C(=O)O)[C@@H](OCc1ccccc1)C(=O)O.N[C@H](C(=O)O)[C@H](OCc1ccccc1)C(=O)O [TBOA-(DL)] | 99.5 | 101 | 97.2 | 95 | 99.2 | 104 | 100 | 101 | 96.6 | 98.8 | 100 | 94.1 | 91.5 | 96.6 | 82.5 | 96.3 | 94.6 | 89.8 | 90.2 | 92.4 | 96.7 | 87.8 | 92.4 | 98.4 | 109 | > 10 | > 10 | > 10000 | > 10 | > 10 | 0 | 0 | 0.3 | 0 | 0 |
| COC1CCN(c2cccc(-c3cc(NC(C)=O)nc(-n4nc(C)cc4C)n3)n2)CC1 [TC-G-1004] | 105 | 97.6 | 104 | 102 | 95 | 103 | 107 | 101 | 104 | 86.7 | 84.7 | 101 | 75.3 | 90.9 | 44 | 106 | 89.3 | 111 | 96.9 | 20.7 | 103 | 94.9 | 103 | 91.8 | 93.1 | > 10 | > 10 | 1120 | 2.88 | > 10 | 0 | 0.1 | 5.5 | 4.8 | 0 |
